Reference: the supplement of paper PMC10307832

Legend:
Experiment in all cases: relative viability (nuclei count vs DMSO), 5 days (fraction); higher = more cells survive
Crenolanib + Bortezomib = compound: CC1(COc2ccc3c(c2)ncn3-c2ccc3cccc(N4CCC(N)CC4)c3n2)COC1 [Crenolanib] + CC(C)C[C@H](NC(=O)[C@H](Cc1ccccc1)NC(=O)c1cnccn1)B(O)O [Bortezomib] (partner 0.002 µM)
Outline: (§1)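 Lung cancer cell lines in 1536-well plates were dosed by pin tool the day after seeding, either with one drug alone or with a fixed anchor-drug dose plus five library-drug doses (not always all listed) in √10 steps. After 5 days, cells were fixed and their nuclei stained in one step (final 0.05% Triton X-100, 1% formaldehyde, 1 ug/ml Hoechst), then counted on 4× images. Relative viability is the nuclei count in treated wells divided by that in vehicle wells. Values are medians of duplicate plates.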

Crenolanib + Vorinostat = compound: CC1(COc2ccc3c(c2)ncn3-c2ccc3cccc(N4CCC(N)CC4)c3n2)COC1 [Crenolanib] + O=C(CCCCCCC(=O)Nc1ccccc1)NO [Vorinostat] (partner 1 µM)
Outline: as §1

Tivantinib + Phenformin = compound: O=C1NC(=O)[C@@H](c2cn3c4c(cccc24)CCC3)[C@@H]1c1c[nH]c2ccccc12 [Tivantinib] + N=C(N)NC(=N)NCCc1ccccc1 [Phenformin] (partner 250 µM)
Outline: as §1

Tivantinib + AZD7762 = compound: O=C1NC(=O)[C@@H](c2cn3c4c(cccc24)CCC3)[C@@H]1c1c[nH]c2ccccc12 [Tivantinib] + NC(=O)Nc1cc(-c2cccc(F)c2)sc1C(=O)N[C@H]1CCCNC1 [AZD7762] (partner 0.2 µM)
Outline: as §1

Cell Line	relative viability (Crenolanib + Bortezomib; first compound 0.01 µM)	relative viability (Crenolanib + Bortezomib; first compound 0.03162 µM)	relative viability (Crenolanib + Bortezomib; first compound 0.1 µM)	relative viability (Crenolanib + Bortezomib; first compound 0.3162 µM)	relative viability (Crenolanib + Bortezomib; first compound 1 µM)	relative viability (Crenolanib + Vorinostat; first compound 0.01 µM)	relative viability (Crenolanib + Vorinostat; first compound 0.03162 µM)	relative viability (Crenolanib + Vorinostat; first compound 0.1 µM)	relative viability (Crenolanib + Vorinostat; first compound 0.3162 µM)	relative viability (Crenolanib + Vorinostat; first compound 1 µM)	relative viability (Tivantinib + Phenformin; first compound 0.01 µM)	relative viability (Tivantinib + Phenformin; first compound 0.03162 µM)	relative viability (Tivantinib + Phenformin; first compound 0.1 µM)	relative viability (Tivantinib + Phenformin; first compound 0.3162 µM)	relative viability (Tivantinib + AZD7762; first compound 0.01 µM)	relative viability (Tivantinib + AZD7762; first compound 0.03162 µM)	relative viability (Tivantinib + AZD7762; first compound 0.1 µM)	relative viability (Tivantinib + AZD7762; first compound 0.3162 µM)
CAL-12T	1.05	0.667	1.23	1.02	0.789	0.781	0.67	0.631	0.966	0.66	0.639	0.529	0.582	0.259	0.563	0.603	0.574	0.437
NCI-H596	0.929	1.07	0.998	0.981	1.17	0.586	0.546	0.616	0.592	0.594	0.665	0.651	0.715	0.771	0.994	0.975	1.09	1.38
NCI-H2085	1.05	1.1	1.07	1.11	0.968		0.764	0.809	0.781	0.759	0.774	0.639	0.699	0.519	1.01	0.944	0.942	0.813
